According to US20260028338A1, “HETEROBIFUNCTIONAL COMPOUNDS AND METHODS OF TREATING DISEASE” (Halda Therapeutics OpCo, Inc., priority 2023, published 2026):

What was measured:
[1] = tested on: T-Rex 293 cell line SC cells having increased expression of BCL6 protein; assay: Cellular growth inhibition assay, T-Rex 293 SC cells with doxycycline (CellTiter-Glo); format: cell-based; conditions: T-Rex 293 SC cells with 10 ng/mL doxycycline (increased BCL6 expression), 72 hours, CellTiter-Glo 2.0
Method: (§1) Exemplary compounds were tested for ability to inhibit the proliferation of the following types of cells: (i) a T-Rex 293 cell line having increased expression of BCL6 protein due to exposure of doxycycline and (ii) a T-Rex 293 cell line lacking increased expression of BCL6 protein.
(§2) The following types of cells were prepared for this experiment: (i) a T-Rex 293 cell line having increased expression of BCL6 protein due to exposure to doxycycline and (ii) a T-Rex 293 cell line lacking increased expression of BCL6 protein. Ability of the test compounds to inhibit proliferation of the foregoing cell types was evaluated according to the procedures set forth below.
(§3) The doxycycline-inducible BCL6 protein expressing cell line was established using the following protocol: T-Rex 293 cells were purchased from Invitrogen (Cat #R71007) and transfected using Lipofectamine 2000 with the wild-type BCL6 protein sequence cloned into the pcDNA4/TO vector. Transfected cells were selected using 400 μg/mL Zeocin (Invitrogen Cat #R25001). Following selection, single clones were raised and maintained in Dulbecco's Modified Eagle Medium (DMEM) supplemented with 10% w/w Tetracycline-free fetal bovine serum (FBS) and 250 μg/mL Zeocin. Clones were analyzed for expression of BCL6 protein in the presence and absence of 10 ng/mL doxycycline (Sigma Cat #D9891), and a single doxycycline-inducible clone (hereinafter “SC”) was selected for use in downstream assays.
(§4) The SC cells were seeded on poly-D-lysine coated, black clear-bottom 384-well plates at 2500/well, in 25 μL Dulbecco's Modified Eagle Medium (DMEM) supplemented with 10% w/w Tetracycline-free fetal bovine serum (FBS) and 1% w/w pen-strep, with or without 10 ng/mL doxycycline. Pen-Strep is a commercially available mixture of penicillin G and streptomycin, which is used in mammalian cell culture media to prevent bacterial contamination. Dulbecco's Modified Eagle Medium (DMEM) supplemented with 10% w/w Tetracycline-free fetal bovine serum (FBS) and 1% w/w pen-strep, with or without 10 ng/mL doxycycline is herein referred to as Treatment Medium. Following seeding of cells in the plates, the plates were spun at 300×g for 30 seconds, then equilibrated to room temperature for 30 minutes, and then deposited in a humidified tissue culture incubator maintained at 37° C. with 5% CO2.
(§5) At 24 hours after seeding of the cells, dilutions of test compound were prepared in DMSO and dissolved in Treatment Medium, to achieve a final DMSO concentration of 0.5% w/w, thereby providing the Test Compound Solution. A 25 μL aliquot of the Test Compound Solution was added to cells in the well plates. An equal volume of a solution containing DMSO and Treatment Medium was used as a negative control. Following treatment of cells with Test Compound Solution or said equal volume of a solution containing DMSO and Treatment Medium, the plates were spun at 300×g for 30 seconds, and then left in an incubator for 72 hours.
(§6) At the end of the treatment duration, cell viability was quantified with CellTiter-Glo 2.0 reagent (Promega Cat #G9243). For this purpose, plates were equilibrated to room temperature for 30 minutes, and then 25 μL of CellTiter-Glo 2.0 reagent was added to cells in the plate wells. Plates were then agitated on a shaker for two minutes at 500 rpm and subsequently incubated at room temperature for 10 minutes. Following incubation, the plates were spun at 3000×g for 30 seconds, then sealed with an optical adhesive cover, and luminescence readings were measured with an EnVision Plate Reader (Perkin Elmer).
(§7) Data was normalized using zero luminescence for baseline. A four-parameter non-linear regression curve fit was applied to dose-response data in GraphPad Prism data analysis software to determine the half-maximal growth inhibitory concentration (GI50) for each test compound.

Farage cell line = assay: Cellular growth inhibition assay, Farage cells (CellTiter-Glo); format: cell-based; conditions: Farage cell line (DLBCL), 72 hours, CellTiter-Glo 2.0
Method: (§8) Exemplary compounds were tested for ability to inhibit the proliferation of Su-DHL-4 and Farage cells. Su-DHL-4 and Farage cells are commercially available diffuse large B cell lymphoma cell lines (DLBCL).
(§9) Su-DHL-4 and Farage cells were purchased from American Type Cell Culture (ATCC Cat #CRL-2957/CRL-2630) and then seeded on poly-D-lysine coated, black clear-bottom 384-well plates at 3000/well in 25 μL Roswell Park Memorial Institute media (RPMI-1640) supplemented with 10% w/w Fetal bovine serum (FBS) and 1% w/w Pen-Strep. Pen-Strep is a commercially available mixture of penicillin G and streptomycin, which is used in mammalian cell culture media to prevent bacterial contamination. Roswell Park Memorial Institute media (RPMI-1640) supplemented with 10% w/w fetal bovine serum (FBS), and 1% w/w Pen-Strep is herein referred to as Treatment Medium. Following seeding of cells in the plates, the plates were spun at 300×g for 30 seconds, then equilibrated to room temperature for 30 minutes, and then deposited in a humidified tissue culture incubator maintained at 37° C. with 5% CO2.
as §5, §6, §7

[2] = target: T1, biotinylated BCL6 (5-129) (Homo sapiens, UniProt P41182); assay: SPR assay for binding affinity to BCL6; conditions: Biacore 8K, 25° C., immobilized biotinylated BCL6 (5-129)
T1 construct: biotinylated BCL6 (5-129) was diluted in 10 mM HEPES pH 7.4; biotin (biotinylated)
Method: Exemplary compounds were tested for ability to bind to B-cell lymphoma 6 (BCL6) protein.
Binding studies by surface plasmon resonance (SPR) were performed using a Biacore 8K (Cytiva) instrument at 25° C. Briefly, biotinylated BCL6 (5-129) was diluted in 10 mM HEPES pH 7.4, 150 mM NaCl, 0.05% Surfactant P20, 0.5 mM TCEP, 3% DMSO to 1-5 μg/mL and was immobilized on an SA sensor chip (Cytiva, BR100032), resulting in surface densities at 1000-3000 resonance units (RUs). Test compounds were serially diluted five times in the same buffer and were injected to the immobilized surface. Kinetic determination experiments were performed using single-cycle kinetics with 110-120 s contact time, 1000-4000 s dissociation time, 30 μL/min flow rate. Binding data were analyzed by using Biacore insight evaluation software to determine KD values for test compounds.

[3] = target: T2, His-tagged BRD4 BD2 (333-460) (Homo sapiens, UniProt O60885); assay: AlphaLISA competition assay, BRD4 BD2; format: binding; conditions: BRD4-BD2, AlphaLISA competition with biotinylated histone H4K5/8/12/16(Ac) peptide, 20 nM
T2 construct: The same assay was developed for His-tagged BRD4 BD2 (333-460) and biotinylated histone H4K5/8/12/16(Ac) peptide
Method: (§10) Exemplary compounds were tested for ability to bind to bromodomain-containing protein 4 (BRD4).
(§11) Compounds were tested using a developed AlphaLISA competition assay. Briefly, His-tagged BRD4 BD1 (46-168) and biotinylated histone H4K5/8/12/16(Ac) peptide (ANASPEC, AS-64989-1) were incubated in 20 mM HEPES pH 7.5, 100 mM NaCl, 0.5 mM TCEP, 0.1% BSA, 0.02% CHAPS at a final concentration of 10 nM. Test compounds were serially diluted ten times in the same buffer and were added to the BRD4-peptide mixture for 1 h incubation at room temperature. Following incubation, Streptavidin AlphaLISA acceptor beads (PerkinElmer, AL125M) were added to BRD4-peptide-compound samples to a final concentration of 0.01 mg/mL for a 0.5 h incubation at room temperature in the dark. Following incubation, the same amount of Nickel Chelate Alpha donor beads (PerkinElmer, AS101M) were added to the samples for a final 1 h incubation. The AlphaLISA signals were measured using an EnVision plate reader (PerkinElmer). The data were uploaded to Screening Ultra (Dotmatics) to determine the half-maximal inhibitory concentration (IC50) for each test compound.
The same assay was developed for His-tagged BRD4 BD2 (333-460) and biotinylated histone H4K5/8/12/16(Ac) peptide at a final concentration of 20 nM.

[4] = tested on: T-Rex 293 cell line SC cells lacking increased expression of BCL6 protein; assay: Cellular growth inhibition assay, T-Rex 293 SC cells without doxycycline (CellTiter-Glo); format: cell-based; conditions: T-Rex 293 SC cells not exposed to doxycycline (no increased BCL6 expression), 72 hours, CellTiter-Glo 2.0
Method: as §1, §2, §3, §4, §5, §6, §7

Su-DHL-4 cell line = assay: Cellular growth inhibition assay, Su-DHL-4 cells (CellTiter-Glo); format: cell-based; conditions: Homo sapiens; Su-DHL-4 cell line (DLBCL), 72 hours, CellTiter-Glo 2.0
Method: as §8, §9, §5, §6, §7

[5] = target: T3, His-tagged BRD4 BD1 (46-168) (Homo sapiens, UniProt O60885); assay: AlphaLISA competition assay, BRD4 BD1; format: binding; conditions: BRD4-BD1, AlphaLISA competition with biotinylated histone H4K5/8/12/16(Ac) peptide, 10 nM
T3 construct: His-tagged BRD4 BD1 (46-168) and biotinylated histone H4K5/8/12/16(Ac) peptide
Method: as §10, §11

| Compound | Kd [2] [nM] | IC50 [3] [nM] | GI50 (Su-DHL-4 cell line) [nM] | IC50 [5] [nM] | GI50 [1] [nM] | GI50 (Farage cell line) [nM] | GI50 [4] [nM] |
| --- | --- | --- | --- | --- | --- | --- | --- |
| CNC(=O)COc1cc2cc(Nc3nc(N4CCC(CCCN5CCN(CCN(C)[C@H]6C[C@H](Oc7ccc(C(C)(C)O)cc7-c7cn(C)c(=O)c8[nH]ccc78)C6)CC5)CC4)ncc3Cl)ccc2n(C)c1=O [Compound I-19] | 1 to 10 | < 5 | < 500 | 5 to 50 | < 500 | < 500 | 1500 to 3000 |
| CNC(=O)COc1cc2cc(Nc3nc(N4CCC(CN5CCN(CCN(C)[C@H]6C[C@H](Oc7ccc(C(C)(C)O)cc7-c7cn(C)c(=O)c8[nH]ccc78)C6)CC5)CC4)ncc3Cl)ccc2n(C)c1=O [Compound I-20] | 1 to 10 | < 5 | < 500 | 5 to 50 | < 500 | < 500 | 500 to 1500 |
| CCS(=O)(=O)Nc1ccc(Oc2cccc(OCCN3CCN(CCN4CCN(c5ncc(Cl)c(Nc6ccc7c(c6)cc(OCC(=O)NC)c(=O)n7C)n5)CC4)CC3)c2)c(-c2cn(C)c(=O)c3[nH]ccc23)c1 [Compound I-15] | 1 to 10 | < 5 | < 500 | < 5 | < 500 | < 500 | 500 to 1500 |
| CCS(=O)(=O)Nc1ccc(Oc2cccc(OCCN3CCN(CC4CCN(c5ncc(Cl)c(Nc6ccc7c(c6)cc(OCC(=O)NC)c(=O)n7C)n5)CC4)CC3)c2)c(-c2cn(C)c(=O)c3[nH]ccc23)c1 [Compound I-4] | > 100 | 5 to 50 | < 500 | 50 to 500 | < 500 | – | < 500 |

The next lines start with results.

| Kd [2] [nM] | IC50 [3] [nM] | GI50 (Su-DHL-4 cell line) [nM] | IC50 [5] [nM] | Compound | GI50 [1] [nM] | GI50 (Farage cell line) [nM] | GI50 [4] [nM] |
| --- | --- | --- | --- | --- | --- | --- | --- |
| 1 to 10 | < 5 | < 500 | 50 to 500 | CNC(=O)COc1cc2cc(Nc3nc(N4CCC(CCN5CCN(CCOc6cccc(Oc7ccc(C(C)(C)O)cc7-c7cn(C)c(=O)c8[nH]ccc78)c6)CC5)CC4)ncc3Cl)ccc2n(C)c1=O [Compound I-24] | < 500 | < 500 | < 500 |
| 1 to 10 | < 5 | < 500 | < 5 | CNC(=O)COc1cc2cc(Nc3nc(N4CCC(CC5CN(CC6CC(Oc7ccc(C(C)(C)O)cc7-c7cn(C)c(=O)c8[nH]ccc78)C6)C5)CC4)ncc3Cl)ccc2n(C)c1=O (centres unmarked) [Compound I-22, 2-[[6-[[5-chloro-2-[4-[[1-[[3-[4-(1-hydroxy-1-methyl-ethyl)-2-(6-methyl-7-oxo-1H-pyrrolo[2,3-c]pyridin-4-yl)phenoxy]cyclobutyl]methyl]azetidin-3-yl]methyl]-1-piperidyl]pyrimidin-4-yl]amino]-1-methyl-2-oxo-3-quinolyl]oxy]-N-methyl-acetamide] | < 500 | < 500 | < 500 |
| 1 to 10 | < 5 | < 500 | < 5 | CNC(=O)COc1cc2cc(Nc3nc(N4CCN(CCN5CCN(CCOc6cccc(Oc7ccc(C(C)(C)O)cc7-c7cn(C)c(=O)c8[nH]ccc78)c6)CC5)CC4)ncc3Cl)ccc2n(C)c1=O [Compound I-23, 2-[[6-[[5-chloro-2-[4-[2-[4-[2-[3-[4-(1-hydroxy-1-methyl-ethyl)-2-(6-methyl-7-oxo-1H-pyrrolo[2,3-c]pyridin-4-yl)phenoxy]phenoxy]ethyl]piperazin-1-yl]ethyl]piperazin-1-yl]pyrimidin-4-yl]amino]-1-methyl-2-oxo-3-quinolyl]oxy]-N-methyl-acetamide] | < 500 | < 500 | 500 to 1500 |
| 1 to 10 | < 5 | < 500 | < 5 | CNC(=O)COc1cc2cc(Nc3nc(N4CCC(CCN5CCN(CCN(C)[C@H]6C[C@H](Oc7ccc(C(C)(C)O)cc7-c7cn(C)c(=O)c8[nH]ccc78)C6)CC5)CC4)ncc3Cl)ccc2n(C)c1=O [Compound I-21] | < 500 | < 500 | 1500 to 3000 |
| > 100 | < 5 | < 500 | 5 to 50 | CNC(=O)COc1cc2cc(Nc3nc(N4CCCC5(CC(Oc6ccc(C7=N[C@@H](Cc8ncco8)c8nnc(C)n8-c8sc(C)c(C)c87)cc6)C5)C4)ncc3Cl)ccc2n(C)c1=O (some centres unmarked) [Compound I-27] | < 500 | < 500 | < 500 |
